Test results reported in patent publication US6489469B1, “Method for storing or transporting erythritol solution” (Nikken Chemicals Co., Ltd., priority 1999, dated 2002).

System: Bacillus stearothermophilus IFO 12550
Assay: Viable Count of Bacillus stearothermophilus IFO 12550 in Erythritol Solution (heat resistant bacteria)
Assay type: cell-based
Description: Erythritol solutions of respective concentrations in the range of from 30 to 70% were prepared. To these was inoculated Bacillus stearothermophilus IFO 12550 as a heat resistant bacterium in a population (concentration) of 10,000 cells/mL or more.
After the inoculation, the solutions were stored at 50, 60 or 75° C., respectively, for 56 days and the number of viable cell was determined daily. The determination of the number of viable cell was performed by in the same manner as in Example 1.

## OC[C@@H](O)[C@@H](O)CO [Erythritol Solution, erythritol]
50° C., 30% w/w, Day 0
  The Number of Viable Cell: 10000 or more cells/mL
50° C., 30% w/w, Day 3
  The Number of Viable Cell: 70 cells/mL
50° C., 30% w/w, Day 7
  The Number of Viable Cell: 60 cells/mL
50° C., 30% w/w, Day 14
  The Number of Viable Cell: 40 cells/mL
50° C., 30% w/w, Day 28
  The Number of Viable Cell: 60 cells/mL
50° C., 30% w/w, Day 56
  The Number of Viable Cell: 50 cells/mL
50° C., 40% w/w, Day 0
  The Number of Viable Cell: 10000 or more cells/mL
50° C., 40% w/w, Day 3
  The Number of Viable Cell: 40 cells/mL
50° C., 40% w/w, Day 7
  The Number of Viable Cell: 50 cells/mL
50° C., 40% w/w, Day 14
  The Number of Viable Cell: 50 cells/mL
50° C., 40% w/w, Day 28
  The Number of Viable Cell: 50 cells/mL
50° C., 40% w/w, Day 56
  The Number of Viable Cell: 60 cells/mL
50° C., 50% w/w, Day 0
  The Number of Viable Cell: 10000 or more cells/mL
50° C., 50% w/w, Day 3
  The Number of Viable Cell: 100 cells/mL
50° C., 50% w/w, Day 7
  The Number of Viable Cell: 100 cells/mL
50° C., 50% w/w, Day 14
  The Number of Viable Cell: 50 cells/mL
50° C., 50% w/w, Day 28
  The Number of Viable Cell: 70 cells/mL
50° C., 50% w/w, Day 56
  The Number of Viable Cell: 120 cells/mL
60° C., 30% w/w, Day 0
  The Number of Viable Cell: 10000 or more cells/mL
60° C., 30% w/w, Day 3
  The Number of Viable Cell: 90 cells/mL
60° C., 30% w/w, Day 7
  The Number of Viable Cell: 60 cells/mL
60° C., 30% w/w, Day 14
  The Number of Viable Cell: 90 cells/mL
60° C., 30% w/w, Day 28
  The Number of Viable Cell: 300 cells/mL
60° C., 30% w/w, Day 56
  The Number of Viable Cell: 0 cells/mL
60° C., 40% w/w, Day 0
  The Number of Viable Cell: 10000 or more cells/mL
60° C., 40% w/w, Day 3
  The Number of Viable Cell: 60 cells/mL
60° C., 40% w/w, Day 7
  The Number of Viable Cell: 70 cells/mL
60° C., 40% w/w, Day 14
  The Number of Viable Cell: 200 cells/mL
60° C., 40% w/w, Day 28
  The Number of Viable Cell: 320 cells/mL
60° C., 40% w/w, Day 56
  The Number of Viable Cell: 0 cells/mL
60° C., 50% w/w, Day 0
  The Number of Viable Cell: 10000 or more cells/mL
60° C., 50% w/w, Day 3
  The Number of Viable Cell: 100 cells/mL
60° C., 50% w/w, Day 7
  The Number of Viable Cell: 150 cells/mL
60° C., 50% w/w, Day 14
  The Number of Viable Cell: 200 cells/mL
60° C., 50% w/w, Day 28
  The Number of Viable Cell: 330 cells/mL
60° C., 50% w/w, Day 56
  The Number of Viable Cell: 0 cells/mL
60° C., 60% w/w, Day 0
  The Number of Viable Cell: 10000 or more cells/mL
60° C., 60% w/w, Day 3
  The Number of Viable Cell: 130 cells/mL
60° C., 60% w/w, Day 7
  The Number of Viable Cell: 100 cells/mL
60° C., 60% w/w, Day 14
  The Number of Viable Cell: 150 cells/mL
60° C., 60% w/w, Day 28
  The Number of Viable Cell: 120 cells/mL
60° C., 60% w/w, Day 56
  The Number of Viable Cell: 0 cells/mL
75° C.
  time after which all the cells died: 14 days
75° C., 30% w/w, Day 0
  The Number of Viable Cell: 10000 or more cells/mL
75° C., 30% w/w, Day 3
  The Number of Viable Cell: 350 cells/mL
75° C., 30% w/w, Day 7
  The Number of Viable Cell: 340 cells/mL
75° C., 30% w/w, Day 14
  The Number of Viable Cell: 0 cells/mL
75° C., 30% w/w, Day 28
  The Number of Viable Cell: 0 cells/mL
75° C., 30% w/w, Day 56
  The Number of Viable Cell: 0 cells/mL
75° C., 40% w/w, Day 0
  The Number of Viable Cell: 10000 or more cells/mL
75° C., 40% w/w, Day 3
  The Number of Viable Cell: 330 cells/mL
75° C., 40% w/w, Day 7
  The Number of Viable Cell: 490 cells/mL
75° C., 40% w/w, Day 14
  The Number of Viable Cell: 0 cells/mL
75° C., 40% w/w, Day 28
  The Number of Viable Cell: 0 cells/mL
75° C., 40% w/w, Day 56
  The Number of Viable Cell: 0 cells/mL
75° C., 50% w/w, Day 0
  The Number of Viable Cell: 10000 or more cells/mL
75° C., 50% w/w, Day 3
  The Number of Viable Cell: 220 cells/mL
75° C., 50% w/w, Day 7
  The Number of Viable Cell: 590 cells/mL
75° C., 50% w/w, Day 14
  The Number of Viable Cell: 0 cells/mL
75° C., 50% w/w, Day 28
  The Number of Viable Cell: 0 cells/mL
75° C., 50% w/w, Day 56
  The Number of Viable Cell: 0 cells/mL
75° C., 60% w/w, Day 0
  The Number of Viable Cell: 10000 or more cells/mL
75° C., 60% w/w, Day 3
  The Number of Viable Cell: 170 cells/mL
75° C., 60% w/w, Day 7
  The Number of Viable Cell: 480 cells/mL
75° C., 60% w/w, Day 14
  The Number of Viable Cell: 0 cells/mL
75° C., 60% w/w, Day 28
  The Number of Viable Cell: 0 cells/mL
75° C., 60% w/w, Day 56
  The Number of Viable Cell: 0 cells/mL
75° C., 70% w/w, Day 0
  The Number of Viable Cell: 10000 or more cells/mL
75° C., 70% w/w, Day 3
  The Number of Viable Cell: 140 cells/mL
75° C., 70% w/w, Day 7
  The Number of Viable Cell: 210 cells/mL
75° C., 70% w/w, Day 14
  The Number of Viable Cell: 0 cells/mL
75° C., 70% w/w, Day 28
  The Number of Viable Cell: 0 cells/mL
75° C., 70% w/w, Day 56
  The Number of Viable Cell: 0 cells/mL
All the concentrations, temperature of 50° C. or more
  growth of the bacteria: inhibited
